Measurements from the supplement of paper PMC10307832.

Legend:
Assay in all cases: relative viability (nuclei count vs DMSO), 5 days (fraction); higher = more cells survive
AZD8055 + Bortezomib = compound: COc1ccc(-c2ccc3c(N4CCOC[C@@H]4C)nc(N4CCOC[C@@H]4C)nc3n2)cc1CO [AZD8055] + CC(C)C[C@H](NC(=O)[C@H](Cc1ccccc1)NC(=O)c1cnccn1)B(O)O [Bortezomib] (partner 0.002 µM)
How it was run: (§1)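 For relative viability, nuclei counts in treated wells were divided by those in vehicle wells. Lung cancer cell lines had been pin-tool dosed in 1536-well plates the day after seeding and cultured for 5 days, then fixed and stained in one step (final 0.05% Triton X-100, 1% formaldehyde, 1 ug/ml Hoechst) and imaged at 4×. Doses were one drug alone or a fixed anchor-drug dose plus five library-drug doses (not always all listed) in √10 steps, and values are duplicate-plate medians.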

AZD8055 + Pictilisib = compound: COc1ccc(-c2ccc3c(N4CCOC[C@@H]4C)nc(N4CCOC[C@@H]4C)nc3n2)cc1CO [AZD8055] + CS(=O)(=O)N1CCN(Cc2cc3nc(-c4cccc5[nH]ncc45)nc(N4CCOCC4)c3s2)CC1 [Pictilisib] (partner 1 µM)
How it was run: as §1

AZD8055 + Olaparib = compound: COc1ccc(-c2ccc3c(N4CCOC[C@@H]4C)nc(N4CCOC[C@@H]4C)nc3n2)cc1CO [AZD8055] + O=C(c1cc(Cc2n[nH]c(=O)c3ccccc23)ccc1F)N1CCN(C(=O)C2CC2)CC1 [Olaparib] (partner 8 µM)
How it was run: as §1

AZD8055 + Trametinib = compound: COc1ccc(-c2ccc3c(N4CCOC[C@@H]4C)nc(N4CCOC[C@@H]4C)nc3n2)cc1CO [AZD8055] + CC(=O)Nc1cccc(-n2c(=O)n(C3CC3)c(=O)c3c(Nc4ccc(I)cc4F)n(C)c(=O)c(C)c32)c1 [Trametinib] (partner 0.02 µM)
How it was run: as §1

Cell Line	relative viability (AZD8055 + Bortezomib; first compound 0.01 µM)	relative viability (AZD8055 + Bortezomib; first compound 0.03162 µM)	relative viability (AZD8055 + Bortezomib; first compound 0.1 µM)	relative viability (AZD8055 + Bortezomib; first compound 0.3162 µM)	relative viability (AZD8055 + Bortezomib; first compound 1 µM)	relative viability (AZD8055 + Pictilisib; first compound 0.01 µM)	relative viability (AZD8055 + Pictilisib; first compound 0.03162 µM)	relative viability (AZD8055 + Pictilisib; first compound 0.1 µM)	relative viability (AZD8055 + Pictilisib; first compound 0.3162 µM)	relative viability (AZD8055 + Pictilisib; first compound 1 µM)	relative viability (AZD8055 + Olaparib; first compound 0.01 µM)	relative viability (AZD8055 + Olaparib; first compound 0.03162 µM)	relative viability (AZD8055 + Olaparib; first compound 0.1 µM)	relative viability (AZD8055 + Olaparib; first compound 0.3162 µM)	relative viability (AZD8055 + Olaparib; first compound 1 µM)	relative viability (AZD8055 + Trametinib; first compound 0.01 µM)	relative viability (AZD8055 + Trametinib; first compound 0.03162 µM)	relative viability (AZD8055 + Trametinib; first compound 0.1 µM)	relative viability (AZD8055 + Trametinib; first compound 0.3162 µM)	relative viability (AZD8055 + Trametinib; first compound 1 µM)
ChaGo-K-1	1.03	1.12	1.09	0.87	0.647	0.817	0.848	0.801	0.49	0.346	0.457	0.48	0.456	0.437	0.395	1.03	0.884	0.858	0.66	0.628
EBC-1	0.485	0.502	0.301	0.236	0.224	0.303	0.266	0.206	0.197	0.19	0.764	0.51	0.331	0.227	0.172					
EKVX	0.942	1	0.832	0.499	0.356	0.485	0.44	0.3	0.245	0.169	1	1.01	0.666	0.413	0.311	0.339	0.389	0.296	0.247	0.227
EMC-BAC-2	1.06	1.04	0.954	0.465	0.382	0.511	0.494	0.475	0.279	0.286	0.391	0.465	0.395	0.272	0.244	0.87	0.818	0.733	0.363	0.434
EPLC-272H	0.74	0.62	0.754	0.522	0.691	0.339	0.307	0.23	0.261	0.212	0.627	0.589	0.333	0.281	0.245	0.278	0.257	0.227	0.189	0.131
H3255	0.777	0.901	0.525	0.371	0.259	0.518	0.45	0.249	0.277	0.272	0.627	0.606	0.516	0.326	0.36	0.687	0.588	0.455	0.306	0.322
HARA	1.12	1.23	1.11	0.725	0.54	0.372	0.257	0.198	0.24	0.17		0.687	0.58	0.39	0.246		0.671	0.497	0.285	0.223
HCC-15	1.17	1.1	0.976	0.663	0.615	0.806	0.685	0.631	0.369	0.338	0.776	0.697	0.643	0.47	0.35	0.373	0.337	0.271	0.167	0.186
